ChEMBL document CHEMBL5131531, “Small Molecule Inhibitors of TET Dioxygenases: Bobcat339 Activity Is Mediated by Contaminating Copper(II)” (ACS Med Chem Lett, 2022)
Calls of active or inactive are those of the source.

Key:
[1] = molecular target: Methylcytosine dioxygenase TET1 (Homo sapiens) (UniProt Q8NFU7); experiment: Inhibition of recombinant human TET1 catalytic domain assessed as reduction of 5hmC formation at 125 uM using hemi-methylated synthetic oligomer 5'-AATTAGAA[5meC]GCTCCTT-3' as substrate incubated for 30 mins in presence of CuSO4 by LC-MS method
Methylcytosine dioxygenase TET1 (Homo sapiens), sequence (Q8NFU7 whole entry, the tested form may be a part): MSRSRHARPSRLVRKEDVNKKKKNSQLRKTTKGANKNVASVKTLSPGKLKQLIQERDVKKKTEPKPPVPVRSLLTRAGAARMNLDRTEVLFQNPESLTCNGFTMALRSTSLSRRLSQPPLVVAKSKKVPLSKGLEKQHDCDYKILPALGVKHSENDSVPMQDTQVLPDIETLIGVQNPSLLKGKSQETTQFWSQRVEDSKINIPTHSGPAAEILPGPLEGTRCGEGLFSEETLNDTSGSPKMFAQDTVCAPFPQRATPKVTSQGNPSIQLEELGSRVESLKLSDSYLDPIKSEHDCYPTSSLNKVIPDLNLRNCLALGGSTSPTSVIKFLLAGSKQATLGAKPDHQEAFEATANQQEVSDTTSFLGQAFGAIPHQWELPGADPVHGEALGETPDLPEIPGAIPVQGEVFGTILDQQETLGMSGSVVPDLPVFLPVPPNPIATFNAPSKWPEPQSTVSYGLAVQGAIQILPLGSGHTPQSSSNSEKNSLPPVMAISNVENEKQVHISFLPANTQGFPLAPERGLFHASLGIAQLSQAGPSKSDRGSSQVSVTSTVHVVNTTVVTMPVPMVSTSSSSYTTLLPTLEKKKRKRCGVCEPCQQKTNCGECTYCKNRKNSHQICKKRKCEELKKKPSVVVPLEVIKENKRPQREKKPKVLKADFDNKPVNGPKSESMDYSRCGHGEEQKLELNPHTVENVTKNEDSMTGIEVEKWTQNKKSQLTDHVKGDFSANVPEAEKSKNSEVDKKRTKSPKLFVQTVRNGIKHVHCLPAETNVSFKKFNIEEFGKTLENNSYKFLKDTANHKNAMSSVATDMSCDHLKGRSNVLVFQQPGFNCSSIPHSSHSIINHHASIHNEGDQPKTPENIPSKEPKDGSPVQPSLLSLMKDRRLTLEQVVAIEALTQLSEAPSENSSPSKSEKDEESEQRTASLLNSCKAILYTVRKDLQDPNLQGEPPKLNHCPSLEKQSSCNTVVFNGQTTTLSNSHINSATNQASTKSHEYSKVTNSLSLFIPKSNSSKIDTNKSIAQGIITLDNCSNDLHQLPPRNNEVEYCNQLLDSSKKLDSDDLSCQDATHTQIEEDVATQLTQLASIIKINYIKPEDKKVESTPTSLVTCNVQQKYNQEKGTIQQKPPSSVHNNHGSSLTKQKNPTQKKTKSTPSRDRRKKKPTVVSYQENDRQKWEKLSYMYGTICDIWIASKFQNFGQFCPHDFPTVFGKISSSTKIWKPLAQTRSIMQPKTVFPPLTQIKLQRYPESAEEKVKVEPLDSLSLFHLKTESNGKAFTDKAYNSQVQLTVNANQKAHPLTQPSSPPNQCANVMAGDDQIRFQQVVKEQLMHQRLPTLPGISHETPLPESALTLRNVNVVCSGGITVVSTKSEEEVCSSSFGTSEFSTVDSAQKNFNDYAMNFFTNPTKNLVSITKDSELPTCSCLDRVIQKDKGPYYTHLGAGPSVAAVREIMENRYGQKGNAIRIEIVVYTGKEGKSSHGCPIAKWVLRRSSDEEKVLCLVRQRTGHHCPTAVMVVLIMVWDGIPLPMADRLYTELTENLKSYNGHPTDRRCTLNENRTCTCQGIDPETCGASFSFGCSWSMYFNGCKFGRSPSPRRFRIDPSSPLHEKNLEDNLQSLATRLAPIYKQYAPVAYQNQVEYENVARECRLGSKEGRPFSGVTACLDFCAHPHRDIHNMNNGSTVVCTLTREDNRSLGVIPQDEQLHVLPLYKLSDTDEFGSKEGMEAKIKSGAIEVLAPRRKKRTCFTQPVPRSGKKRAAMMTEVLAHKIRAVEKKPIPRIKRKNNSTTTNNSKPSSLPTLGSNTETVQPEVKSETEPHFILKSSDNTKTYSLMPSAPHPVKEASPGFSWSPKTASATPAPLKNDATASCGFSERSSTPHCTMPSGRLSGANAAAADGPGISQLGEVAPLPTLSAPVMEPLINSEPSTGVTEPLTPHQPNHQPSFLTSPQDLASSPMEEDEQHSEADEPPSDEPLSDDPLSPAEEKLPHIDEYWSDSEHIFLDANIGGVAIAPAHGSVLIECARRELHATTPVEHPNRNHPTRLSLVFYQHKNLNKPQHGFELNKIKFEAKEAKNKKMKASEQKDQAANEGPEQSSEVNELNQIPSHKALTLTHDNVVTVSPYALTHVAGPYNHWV

[2] = molecular target: Methylcytosine dioxygenase TET1 (Homo sapiens) (UniProt Q8NFU7); experiment: Inhibition of recombinant human TET1 assessed as reduction of 5hmC formation at 0.01 to 125 uM incubated for 30 mins in presence of 1 uM CuSO4 by HPLC-ESI-MS/MS method; settings: dose 0.01-125 µM
[3] = molecular target: Methylcytosine dioxygenase TET1 (Homo sapiens) (UniProt Q8NFU7); experiment: Inhibition of recombinant human TET1 catalytic domain assessed as reduction of 5hmC formation at 125 uM using hemi-methylated synthetic oligomer 5'-AATTAGAA[5meC]GCTCCTT-3' as substrate incubated for 30 mins by LC-MS method
[4] = molecular target: Methylcytosine dioxygenase TET1 (Homo sapiens) (UniProt Q8NFU7); experiment: Inhibition of recombinant human TET1 catalytic domain assessed as reduction of 5hmC formation at 25 uM incubated for 30 mins by HPLC-ESI-MS/MS method
[5] = molecular target: Methylcytosine dioxygenase TET1 (Homo sapiens) (UniProt Q8NFU7); experiment: Inhibition of recombinant human TET1 assessed as reduction of 5hmC formation at 0.01 to 125 uM incubated for 30 mins in presence of 4 uM CuSO4 by HPLC-ESI-MS/MS method; settings: dose 0.01-125 µM
[6] = molecular target: Methylcytosine dioxygenase TET2 (Homo sapiens) (UniProt Q6N021); experiment: Inhibition of recombinant human TET2 catalytic domain assessed as reduction of 5hmC formation at 125 uM using hemi-methylated synthetic oligomer 5'-AATTAGAA[5meC]GCTCCTT-3' as substrate incubated for 30 mins by LC-MS method

Measured: inhibition

Nc1nc(=O)n(-c2cccc(-c3ccccc3)c2)cc1Cl
not listed: [6]
active: all other assays above

CUPRIC SULFATE
active: [6] | [3] | [4]
